Test results taken from ChEMBL document CHEMBL5154856, “Targeting the tumor microenvironment by an enzyme-responsive prodrug of tubulin destabilizer for triple-negative breast cancer therapy with high safety” (Eur J Med Chem, 2022).
Active and inactive are the calls of the source. No cut-off for these calls is given here.

Columns and labels:
[1] = Toxicity in nude mouse xenografted with human MDA-MB-231 cells assessed as effect on body weight at 20 to 40 mg/kg, iv administered every 2 days for 14 days; assay type: organism-based; conditions: in vivo, 336 h, dose 20-40 mg/kg, time 14 day
[2] = Chemical stability of compound at pH 7.4 in bovine serum at 1 mg incubated for 48 hrs by HPLC analysis; assay type: ADME, cell-free; conditions: cattle, pH 7.4, 48 h
[3] = Stability of compound in phosphate buffer at pH 7.4 assessed as Escherichia coli beta-glucuronidase mediated compound cleavage at 1.2 mg measured after 30 mins by HPLC analysis; assay type: ADME; conditions: pH 7.4, 0.5 h
MDA-MB-231 [4] = experiment: Antiproliferative activity against human MDA-MB-231 cells assessed as inhibition of cell growth incubated for 48 hrs in absence of beta-glucuronidase by MTT assay; assay type: functional, cell-based; conditions: MDA-MB-231, 48 h
SK-OV-3 = experiment: Antiproliferative activity against human SK-OV-3 cells assessed as inhibition of cell growth incubated for 48 hrs in presence of beta-glucuronidase by MTT assay; assay type: functional, cell-based; conditions: SK-OV-3, 48 h
MCF7 = experiment: Antiproliferative activity against human MCF7 cells assessed as inhibition of cell growth incubated for 48 hrs in presence of beta-glucuronidase by MTT assay; assay type: functional, cell-based; conditions: MCF7, 48 h
[5] = Metabolic stability in rat liver microsomes assessed as half life at 10 mM measured up to 60 mins in presence of NADPH by LC-MS/MS analysis; assay type: ADME, Microsome
[6] = Metabolic stability in rat liver microsomes assessed as intrinsic clearance in microsomes at 10 mM measured up to 60 mins in presence of NADPH by LC-MS/MS analysis; assay type: ADME, Microsome; conditions: read-out: CLH
[7] = Metabolic stability in rat liver microsomes assessed as intrinsic clearance in liver at 10 mM measured up to 60 mins in presence of NADPH by LC-MS/MS analysis; assay type: ADME, Microsome; conditions: read-out: CLH
[8] = Aqueous solubility of compound in PBS at pH 7.4 at 1 mg incubated for 10 mins by HPLC analysis; assay type: physicochemical
[9] = Acute toxicity in BALB/c mouse assessed as animal survival at […], iv administered as single dose measured after 14 days; assay type: organism-based; conditions: in vivo, time 14 day
MDA-MB-231 [10] = experiment: Antitumour activity against human MDA-MB-231 cells xenografted in nude mouse assessed as tumor growth inhibition at 20 mg/kg,iv administered every 2 days for 14 days; assay type: functional; conditions: MDA-MB-231, 336 h, time 14 day, read-out: TGI
MDA-MB-231 [11] = experiment: Antitumour activity against human MDA-MB-231 cells xenografted in nude mouse assessed as tumor growth inhibition at 40 mg/kg, iv administered every 2 days for 14 days; assay type: functional; conditions: MDA-MB-231, 336 h, time 14 day, read-out: TGI
[12] = Toxicity in nude mouse xenografted with human MDA-MB-231 cells assessed as pathological changes in spleen at 20 to 40 mg/kg, iv administered every 2 days for 14 days by H and E staining based assay; assay type: organism-based; conditions: in vivo, 336 h, dose 20-40 mg/kg, time 14 day
[13] = Toxicity in nude mouse xenografted with human MDA-MB-231 cells assessed as pathological changes in liver at 20 to 40 mg/kg, iv administered every 2 days for 14 days by H and E staining based assay; assay type: organism-based; conditions: in vivo, 336 h, dose 20-40 mg/kg, time 14 day
[14] = Toxicity in nude mouse xenografted with human MDA-MB-231 cells assessed as pathological changes in kidney at 20 to 40 mg/kg, iv administered every 2 days for 14 days by H and E staining based assay; assay type: organism-based; conditions: in vivo, 336 h, dose 20-40 mg/kg, time 14 day
MDA-MB-231 [15] = experiment: Antitumor activity against mouse xenografted with human MDA-MB-231 cells assessed as increase in tumor necrosis area at 20 to 40 mg/kg, iv administered every 2 days for 14 days by H and E staining based assay; assay type: functional, organism-based; conditions: dose 20-40 mg/kg, time 14.0 day
[16] = Toxicity in nude mouse assessed as effect on total protein level in serum at 40 mg/kg, iv administered qd for 3 days (reference value: 47.3 g/L); assay type: organism-based; conditions: in vivo, 72 h, time 3 day
[17] = Toxicity in nude mouse assessed as effect on globulin level in serum at 40 mg/kg, iv administered qd for 3 days (reference value: 16.1 g/L); assay type: organism-based; conditions: in vivo, 72 h, time 3 day
[18] = Toxicity in nude mouse assessed as ratio of effect on albumin level to effect on globulin level in serum at 40 mg/kg, iv administered qd for 3 days (reference value: 1.94); assay type: organism-based; conditions: in vivo, 72 h, time 3 day
[19] = Toxicity in nude mouse assessed as effect on alanine aminotransferase level in serum at 40 mg/kg, iv administered qd for 3 days (reference value: 308 U/L); assay type: organism-based; conditions: in vivo, 72 h, time 3 day
[20] = Toxicity in nude mouse assessed as effect on aspartate aminotransferase level in serum at 40 mg/kg, iv administered qd for 3 days (reference value: 424 U/L); assay type: organism-based; conditions: in vivo, 72 h, time 3 day
[21] = Toxicity in nude mouse assessed as ratio of effect on aspartate aminotransferase level […] level in serum at 40 mg/kg, iv administered qd for 3 days (reference value: 1.38); assay type: organism-based; conditions: in vivo, 72 h, time 3 day
[22] = Toxicity in nude mouse assessed as effect on total bilirubin level in serum at 40 mg/kg, iv administered qd for 3 days (reference value: 3.3 micromol/L); assay type: organism-based; conditions: in vivo, 72 h, time 3 day
[23] = Toxicity in nude mouse assessed as effect on alkaline phosphatase level in serum at 40 mg/kg, iv administered qd for 3 days (reference value: 66 U/L); assay type: organism-based; conditions: in vivo, 72 h, time 3 day
[24] = Toxicity in nude mouse assessed as effect on white blood cell count at 40 mg/kg, iv administered qd for 3 days (reference value: 0.02 10^9/L); assay type: organism-based; conditions: in vivo, 72 h, time 3 day
[25] = Toxicity in nude mouse assessed as effect on red blood cell count at 40 mg/kg, iv administered qd for 3 days (reference value: 0.21 10^12/L); assay type: organism-based; conditions: in vivo, 72 h, time 3 day
[26] = Toxicity in nude mouse assessed as effect on platelet count at 40 mg/kg, iv administered qd for 3 days (reference value: 21 10^9/L); assay type: organism-based; conditions: in vivo, 72 h, time 3 day
[27] = Toxicity in nude mouse assessed as effect on mean corpuscular hemoglobin level at 40 mg/kg, iv administered qd for 3 days (reference value: 22.3 pg); assay type: organism-based; conditions: in vivo, 72 h, time 3 day
[28] = Toxicity in nude mouse assessed as effect on neutrophil level at 40 mg/kg, iv administered qd for 3 days (reference value: 7.40 %); assay type: organism-based; conditions: in vivo, 72 h, time 3 day
[29] = Toxicity in nude mouse assessed as effect on eosinophil level at 40 mg/kg, iv administered qd for 3 days (reference value: 6 %); assay type: organism-based; conditions: in vivo, 72 h, time 3 day
[30] = Toxicity in nude mouse assessed as effect on lymphocyte level at 40 mg/kg, iv administered qd for 3 days (reference value: 60.90 %); assay type: organism-based; conditions: in vivo, 72 h, time 3 day
[31] = Toxicity in nude mouse assessed as effect on monocytes level at 40 mg/kg, iv administered qd for 3 days (reference value: 37.10 %); assay type: organism-based; conditions: in vivo, 72 h, time 3 day
[32] = Toxicity in nude mouse assessed as effect on platelet distribution width at 40 mg/kg, iv administered qd for 3 days (reference value: 20.2); assay type: organism-based; conditions: in vivo, 72 h, time 3 day
[33] = Cardiotoxicity in nude mouse assessed as abnormal spikes at 20 to 40 mg/kg, iv administered once daily for 3 days by ECG analysis; assay type: toxicity, organism-based; conditions: in vivo, 72 h, dose 20-40 mg/kg, time 3 day
[34] = Cardiotoxicity in nude mouse assessed as prolonged QT intervals at 20 to 40 mg/kg, iv administered once daily for 3 days by ECG analysis; assay type: toxicity, organism-based; conditions: in vivo, 72 h, dose 20-40 mg/kg, time 3 day

In the case of `COc1ccc([C@H]2[C@H](CO)C(=O)N2c2cc(OC)c(OC)c(OC)c2)cc1OCc1ccc(O[C@@H]2O[C@H](C(=O)O)[C@@H](O)[C@H](O)[C@H]2O)cc1`, the Activity [1] is reported as “Non-Toxic”, the Stability [2] is reported as “Stable” and the Stability [3] is reported as “Unstable”. The IC50 (MDA-MB-231 [4]) was > 50000 nM, the IC50 (SK-OV-3) was 14.1 nM and the IC50 (MCF7) was 15.7 nM. The half-life [5] was > 2.42 h, the microsomal CLint [6] was < 9.6 µL/min/mg and the CLint scaled [7] was < 38 mL/min/kg. The solubility at 10 min [8] was > 40 mg/mL, the survival at 336 h [9] was 75% and the inhibition in vivo at 20 mg/kg (MDA-MB-231 [10]) was 50%. For the same compound, the inhibition in vivo at 40 mg/kg (MDA-MB-231 [11]) was 63%, the Activity [12] was “Non-Toxic” and the Activity [13] was “Non-Toxic”. For the same compound, the Activity [14] was “Non-Toxic”, the Activity (MDA-MB-231 [15]) was “Active” and the Activity [16] was 45.5 g/L. For the same compound, the Activity [17] was 16 g/L, the Ratio [18] was 1.84 and the Activity [19] was 316 U/L. For the same compound, the Activity [20] was 503 U/L, the Ratio [21] was 1.59 and the Activity [22] was 3.9 µmol/L. For the same compound, the Activity [23] was 56 U/L, the Activity [24] was 0.12 10^9/L and the Activity [25] was 0.31 10^12/L. The Activity [26] was 43 10^9/L, the Activity [27] was 22.3 pg and the Activity [28] was 7.9%. For the same compound, the Activity [29] was 6.2%, the Activity [30] was 57.2% and the Activity [31] was 21.9%. The Activity [32] was 17, the Activity [33] was “Non-Toxic” and the Activity [34] was “Non-Toxic”.
